What follows are compounds tested against TRPC6 (Homo sapiens (Human), UniProt Q9Y210) (assay: High throughput screening assay: fluorescent calcium (Fluo4/AM) assay of TRPC6 channel activation by GSK1702934A in HEK293/TREx cells). Details: HEK293/TREx cells stably transfected with TRPC6; agonist GSK1702934A; 7 concentrations 20 μM to 0.027 μM, triplicate.
Chain of TRPC6 (Q9Y210 whole entry, species assumed): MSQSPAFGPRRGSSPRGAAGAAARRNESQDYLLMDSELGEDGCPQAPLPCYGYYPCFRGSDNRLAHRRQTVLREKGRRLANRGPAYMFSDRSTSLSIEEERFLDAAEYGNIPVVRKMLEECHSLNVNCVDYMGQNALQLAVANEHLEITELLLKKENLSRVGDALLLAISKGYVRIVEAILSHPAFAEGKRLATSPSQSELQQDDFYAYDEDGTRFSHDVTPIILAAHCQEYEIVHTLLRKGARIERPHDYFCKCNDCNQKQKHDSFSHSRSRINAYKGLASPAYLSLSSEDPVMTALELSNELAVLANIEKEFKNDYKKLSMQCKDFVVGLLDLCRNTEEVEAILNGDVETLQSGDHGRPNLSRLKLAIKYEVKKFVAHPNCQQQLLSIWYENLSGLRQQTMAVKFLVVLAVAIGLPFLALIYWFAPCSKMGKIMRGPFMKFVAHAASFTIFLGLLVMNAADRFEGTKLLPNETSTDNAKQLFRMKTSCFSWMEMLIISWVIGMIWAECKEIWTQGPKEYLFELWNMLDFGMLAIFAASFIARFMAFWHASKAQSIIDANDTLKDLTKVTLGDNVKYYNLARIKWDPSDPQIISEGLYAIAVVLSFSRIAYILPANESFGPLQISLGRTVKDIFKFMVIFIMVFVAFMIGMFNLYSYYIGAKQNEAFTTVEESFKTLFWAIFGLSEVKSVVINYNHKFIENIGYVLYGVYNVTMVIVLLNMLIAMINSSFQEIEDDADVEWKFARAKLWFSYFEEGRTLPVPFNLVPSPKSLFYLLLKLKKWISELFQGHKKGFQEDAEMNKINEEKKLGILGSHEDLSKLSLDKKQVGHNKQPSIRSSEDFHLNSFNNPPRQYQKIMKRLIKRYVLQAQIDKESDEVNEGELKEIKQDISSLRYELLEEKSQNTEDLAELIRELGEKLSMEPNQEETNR
Type: cell-based
From the text: This screening assay measures TRPC6 (transient receptor potential cation channel, subfamily C, member 6) ion channel activation via addition either of the commercially available DAG ligand analogue OAG (1-oleoyl-2-acetyl-sn-glycerol) or of the TRPC6 agonist 1-[1-(4,5,6,7,8-pentahydrocyclohepta[2,1-d]thiophen-2-ylcarbonyl)-4-piperidyl]-3-hydrobenzimidazol-2-one (GSK1702934A). The assay utilizes a FLIPR fluorescent calcium sensor 4-(6-Acetoxymethoxy-2,7-difluoro-3-oxo-9-xanthenyl)-4′-methyl-2,2′-(ethylenedioxy)dianiline-N,N,N′,N′-tetraacetic acid tetrakis(acetoxymethyl) ester (Fluo4/AM) […]. Changes (increases) in intracellular membrane calcium concentration potential as measured by the fluorescent signal increase during membrane depolarization provide a measurement of channel activity.
The commercially available HEK293/TREx line (Invitrogen) was stably transfected with a TRPC6 construct and screened by conventional calcium imaging to find clones with TRPC6 expression following stimulation with 1 μg/ml tetracycline. These cells were maintained in the growth medium recommended by the manufacturer supplemented with 100 μg/ml hygromycin to promote retention of the TRPC6 construct. After growing to near confluency, cells were plated at a density of ^˜35,000 cells/well in 384 well CellBind plates (Corning) in the presence of 1 μg/ml tetracycline, and allowed to grow for 20-30 hrs. A nearly confluent monolayer resulted. Growth media was removed from the wells and cells were then loaded with […] Fluo4/AM diluted in Ringer's Solution (6.5 g NaCl, 0.42 g KCl, 0.25 g CaCl2) and 0.2 g of sodium bicarbonate; pH 7.4) supplemented with 1% Pluronic F-127 to a final concentration of 0.5 μM and incubated for 60 min, at room temperature. Dye solution was then removed from the cells by inverting plates with a sharp flick, and replaced with 25 μl Ringer's. Following ^˜0.5 hour for recovery from loading, cells were assayed using the Hamamatsu FDSS 6000 system, which permitted illumination at 485 nm. Frames were acquired at a rate of 0.2 Hz. During the assay, the plates were continuously vortexed, with pipette mixing of wells following addition of each reagent. For the screening assay, 26 μl of a diluted compound stock (at 50 μM) was added to each well for 2 minutes following the collection of a short (4 frame) baseline. 13 μl of agonist solution consisting of 125 nM GSK1702934A diluted in high-Ca2+Ringer solution (containing 90 mm Ca2+) was then added to each well, achieving a final concentration of 20 mm Ca2+ and 10 μM test compound. Data was collected for ^˜3 minutes following addition of high Ca2+Ringer. The fluorescent ratio for each well was divided by the initial fluorescent intensity for that well and the overall response was determined by averaging the fluorescent ratio of the last 4 frames acquired during the experiment excepting the final frame. Negative and Positive controls were included on each plate. Negative controls wells consisted of HEK293/TREx TRPC6 cells exposed to assay buffer and agonist solution, but no test compound. Positive control consisted of wells consisted of HEK293/TREx TRPC6 cells exposed to 25 μM 3-[(2-chlorophenoxy)methyl]phenyl piperidyl ketone (Chembridge) diluted in Ringer's solution and agonist solution. These controls defined zero percent and 100 percent block respectively, and intensity of each well was normalized to these values.
Compounds were tested in triplicate at all concentrations. Standard software was used to fit IC50 curves.
COc1cc(N)ncc1N1CCN(C(=O)c2ccc(Oc3ccccc3)cn2)[C@@H]([C@H](C)O)C1 [Compound 58, (1S)-1-[(2R)-4-(6-amino-4-methoxypyridin-3-yl)-1-(5-phenoxypyridine-2-carbonyl)piperazin-2-yl]ethan-1-ol] showed an IC50 of 100 nM. COc1cc(C(=O)N2CCC(c3cnc(N)cc3C)CC2)ncc1Oc1ccccc1 [Compound 10, (6-Amino-4-methyl-3′,4′,5′,6′-tetrahydro-2′H-[3,4′]bipyridinyl-1′-yl)-(4-methoxy-5-phenoxy-pyridin-2-yl)-methanone] showed an IC50 of 27 nM. COc1cc(C(=O)N2CCC(c3ccc(N)nn3)CC2)ncc1OCC(C)(C)C [Compound 74, [4-(6-Amino-pyridazin-3-yl)-piperidin-1-yl]-[5-(2,2-dimethyl-propoxy)-4-methoxy-pyridin-2-yl]-methanone] was tested, and the IC50 was 1400 nM. In the case of COc1cc(C(=O)N2CCC(c3ccc(N)nn3)CC2)ncc1Oc1ccc(OC(F)(F)F)cc1 [Compound 80, [4-(6-Amino-pyridazin-3-yl)-piperidin-1-yl]-[4-methoxy-5-(4-trifluoromethoxy-phenoxy)-pyridin-2-yl]-methanone], the IC50 is reported as less than 27 nM. For COc1cc(C(=O)N2CCC(c3ccc(N)nn3)CC2)ncc1OCc1ccc(F)cc1 [Compound 41, [4-(6-Amino-pyridazin-3-yl)-piperidin-1-yl]-[5-(4-fluoro-benzyloxy)-4-methoxy-pyridin-2-yl]-methanone], the IC50 was 180 nM. COc1ccc(Oc2cnc(C(=O)N3CCN(c4ccc(N)nc4)C[C@@H]3CO)cc2OC)cc1 [Compound 82, [(R)-4-(6-Amino-pyridin-3-yl)-2-hydroxymethyl-piperazin-1-yl]-[4-methoxy-5-(4-methoxy-phenoxy)-pyridin-2-yl]-methanone] gave an IC50 of 180 nM. COc1cc(C(=O)N2CCC(c3ccc(N)nn3)CC2)ncc1OCC1(C)CC1 [Compound 75, [4-(6-Amino-pyridazin-3-yl)-piperidin-1-yl]-[4-methoxy-5-(1-methyl-cyclopropylmethoxy)-pyridin-2-yl]-methanone] was tested, and the IC50 was 1500 nM. In the case of COc1cc(C(=O)N2CCC(c3ccc(N)nn3)CC2)ncc1OC1CCCCC1 [Compound 62, [4-(6-Amino-pyridazin-3-yl)-piperidin-1-yl]-(5-cyclohexyloxy-4-methoxy-pyridin-2-yl)-methanone], the IC50 is reported as 550 nM. Compound COc1cc(C(=O)N2CCC(c3cnc(N)cc3OC)CC2)ncc1OCC1(C)CC1 [Compound 26, (6-Amino-4-methoxy-3′,4′,5′,6′-tetrahydro-2′H-[3,4′]bipyridinyl-1′-yl)-[4-methoxy-5-(1-methyl-cyclopropylmethoxy)-pyridin-2-yl]-methanone] has an IC50 of 71 nM. COc1cc(C(=O)N2CCN(c3cnc(N)cc3OC)C[C@@H]2CO)ncc1Oc1ccc(F)cc1 [Compound 42, [(R)-4-(6-Amino-4-methoxy-pyridin-3-yl)-2-hydroxymethyl-piperazin-1-yl]-[5-(4-fluoro-phenoxy)-4-methoxy-pyridin-2-yl]-methanone] gave an IC50 of 140 nM. COc1cc(C(=O)N2CCC(c3cnc(N)cc3OC)CC2)ncc1O[C@@H](C)C1CC1 [Compound 70, (6-Amino-4-methoxy-3′,4′,5′,6′-tetrahydro-2′H-[3,4′]bipyridinyl-1′-yl)-[5-((S)-1-cyclopropyl-ethoxy)-4-methoxy-pyridin-2-yl]-methanone] showed an IC50 of 640 nM. With COc1cc(C(=O)N2CCC(c3ccc(N)nn3)CC2)ncc1O[C@@H](C)C1CC1 [Compound 79, [4-(6-Amino-pyridazin-3-yl)-piperidin-1-yl]-[5-((S)-1-cyclopropyl-ethoxy)-4-methoxy-pyridin-2-yl]-methanone] the IC50 was 3700 nM. Work on COc1cc(C(=O)N2CCC(c3cc(OC)c(N)nn3)CC2)ncc1Oc1ccc(F)cc1 [Compound 11, [4-(6-Amino-5-methoxy-pyridazin-3-yl)-piperidin-1-yl]-[5-(4-fluoro-phenoxy)-4-methoxy-pyridin-2-yl]-methanone] yielded an IC50 of 27 nM. COc1cc(C(=O)N2CCC(c3ccc(N)nn3)CC2)ncc1OCC1CCC1 [Compound 25, [4-(6-Amino-pyridazin-3-yl)-piperidin-1-yl]-(5-cyclobutylmethoxy-4-methoxy-pyridin-2-yl)-methanone] gave an IC50 of 70 nM. Compound COc1cc(C(=O)N2CCC(c3ccc(N)nc3)CC2)ncc1Oc1ccccc1 [Compound 3, (6-Amino-3′,4′,5′,6′-tetrahydro-2′H-[3,4′]bipyridinyl-1′-yl)-(4-methoxy-5-phenoxy-pyridin-2-yl)-methanone] has an IC50 of less than 27 nM. Work on COc1cc(C(=O)N2CCN(c3ccc(N)nc3)CC2)ncc1Oc1ccccc1 [Compound 15, [4-(6-Amino-pyridin-3-yl)-piperazin-1-yl]-(4-methoxy-5-phenoxy-pyridin-2-yl)-methanone] yielded an IC50 of 27 nM. COC[C@H]1CN(c2cnc(N)cc2OC)CCN1C(=O)c1cc(OC)c(Oc2ccccc2)cn1 [Compound 27, [(R)-4-(6-Amino-4-methoxy-pyridin-3-yl)-2-methoxymethyl-piperazin-1-yl]-(4-methoxy-5-phenoxy-pyridin-2-yl)-methanone] showed an IC50 of 75 nM. For COc1ccc(Oc2cnc(C(=O)N3CCC(c4cnc(N)cc4OC)CC3)cc2OC)cc1 [Compound 28, (6-Amino-4-methoxy-3′,4′,5′,6′-tetrahydro-2′H-[3,4′]bipyridinyl-1′-yl)-[4-methoxy-5-(4-methoxy-phenoxy)-pyridin-2-yl]-methanone], the IC50 was 100 nM. COc1cc(C(=O)N2CCC(c3cnc(N)cc3OC)CC2)ncc1O[C@H](C)C1CC1 [Compound 77, (6-Amino-4-methoxy-3′,4′,5′,6′-tetrahydro-2′H-[3,4′]bipyridinyl-1′-yl)-[5-((R)-1-cyclopropyl-ethoxy)-4-methoxy-pyridin-2-yl]-methanone] gave an IC50 of 2200 nM. For COc1cc(C(=O)N2CCC(c3cnc(N)cc3C)CC2)ncc1Oc1ccc(F)cc1 [Compound 2, (6-Amino-4-methyl-3′,4′,5′,6′-tetrahydro-2′H-[3,4′]bipyridinyl-1′-yl)-[5-(4-fluoro-phenoxy)-4-methoxy-pyridin-2-yl]-methanone], the IC50 was less than 27 nM. COc1cc(C(=O)N2CCC(c3ccc(N)nn3)CC2)ncc1Oc1ccc(C(F)(F)F)cc1 [Compound 33, [4-(6-Amino-pyridazin-3-yl)-piperidin-1-yl]-[4-methoxy-5-(4-trifluoromethyl-phenoxy)-pyridin-2-yl]-methanone] was tested, and the IC50 was 82 nM. In the case of COc1cc(C(=O)N2CCN(c3ccc(N)nc3)CC2)ncc1Oc1ccc(F)cc1 [Compound 13, [4-(6-Amino-pyridin-3-yl)-piperazin-1-yl]-[5-(4-fluoro-phenoxy)-4-methoxy-pyridin-2-yl]-methanone], the IC50 is reported as 27 nM. Compound COc1cc(C(=O)N2CCN(c3cnc(N)cc3C)C[C@@H]2CO)ncc1Oc1ccc(F)cc1 [Compound 7, [(R)-4-(6-Amino-4-methyl-pyridin-3-yl)-2-hydroxymethyl-piperazin-1-yl]-[5-(4-fluoro-phenoxy)-4-methoxy-pyridin-2-yl]-methanone] has an IC50 of 27 nM. In the case of COc1cc(C(=O)N2CCC(c3ccc(N)nn3)CC2)ncc1Oc1ccc(F)cc1 [Compound 17, 6-{1-[5-(4-Fluorophenoxy)-4-methoxypyridine-2-carbonyl]piperidin-4-yl}pyridazin-3-amine], the IC50 is reported as 29 nM. For COc1cc(C(=O)N2CCC(c3cnc(N)cc3OC)CC2)ncc1OCC1(CF)CC1 [Compound 64, (6-Amino-4-methoxy-3′,4′,5′,6′-tetrahydro-2′H-[3,4′]bipyridinyl-1′-yl)-[5-(1-fluoromethyl-cyclopropylmethoxy)-4-methoxy-pyridin-2-yl]-methanone], the IC50 was 820 nM. COc1cc(C(=O)N2CCC(c3ccc(N)nc3)CC2)ncc1Oc1ccc(F)cc1 [Compound 14, (6-Amino-3′,4′,5′,6′-tetrahydro-2′H-[3,4′]bipyridinyl-1′-yl)-[5-(4-fluoro-phenoxy)-4-methoxy-pyridin-2-yl]-methanone] was tested, and the IC50 was 27 nM.
